Measured values reported in PMC11207040, “Synthesis and Biological Studies of New Temporin A Analogs Containing Unnatural Amino Acids in Position 7” (Pharmaceutics, 2024).
In brackets after ≈: the same amount, converted by molar mass. Non-standard residues stand in square brackets, D forms with d. Residues, ends and D or L forms follow the SMILES beside them. Dab = NCC[C@H](N)C(=O)O

What was measured:
Type in all cases: cell-based
Details in all cases: broth dilution, 0 to 320 µg/mL, 24 h; NI = no inhibition monitored
[1] = tested on: Arthrobacter oxydans NBIMCC 9333
Method: (§1) The parent peptide Temporin A and the novel analogs were subjected to tests against model strains Escherichia coli NBIMCC 8785, Bacillus subtilis NBIMCC 3562, Arthrobacter oxydans NBIMCC 9333, Pseudomonas aeruginosa NBIMCC 3700, and Candida albicans NBIMCC 74, for the assessment of their antimicrobial activity. The strains were acquired from the National Bank for Industrial Microorganisms and Cell Cultures (NBIMCC, Bulgaria). The strain E. coli 8785 was cultured in Luria-Bertani broth (LB, HiMedia, Mumbai, India); B. subtilis 3562—in nutrient broth (NB, HiMedia, Mumbai, India); A. oxydans 9333; P. aeruginosa 3700—in meat peptone agar (MPA) medium; and C. albicans 74—in yeast mold (YM) medium. An incubator shaker ES-20/60 (Biosan, Latvia) was used for the cultivation and was set to 30 °C for B. subtilis 3562, A. oxydans 9333, and C. albicans 74; and 37 °C for E. coli 8785 and P. aeruginosa 3700, with a 24 h shaking period at 120 rpm. The microbial cultures were then adjusted to a turbidity of 0.5 McFarland using a Grant-bio DEN-1B densitometer (Grant Instruments, Royston, UK) for further use.
(§2) The minimal inhibitory concentration (MIC) of the peptides was determined using the broth dilution method. Stock solutions of the peptides with a concentration of 10 mg/mL in 10% EtOH/H2O were prepared. Suspensions of the bacteria in the corresponding media were added to 96-well U-shaped bottom polystyrene plates (Deltalab S.L., Spain) and exposed to the peptide in the concentration range from 0 to 320 µg/mL, and a 10% EtOH/H2O control, diluted using the same scheme as the peptides, was also used. The plates were then incubated under aerobic conditions at the corresponding temperature for 24 h. The MIC (µg/mL) was assumed as the lowest concentration of the antimicrobial, where there was visible inhibition of the strain. The absorbance was measured at 630 nm (Microplate reader PKL PPC 142, Paramedical srl, Salerno, Italy). To determine the minimal bactericidal concentration (MBC) and minimal fungicidal concentration (MFC), 10 μL from concentrations greater than or equal to the MIC was placed on the corresponding solid nutrient medium. The Petri dishes were then incubated at 30 or 37 °C for 24 h. All experiments were conducted in a triplicate.

[2] = tested on: Bacillus subtilis NBIMCC 3562
Method: as §1, §2

[3] = tested on: Escherichia coli NBIMCC 8785
Method: as §1, §2

[4] = tested on: Pseudomonas aeruginosa NBIMCC 3700
Method: as §1, §2

[5] = tested on: Candida albicans NBIMCC 74
Method: as §1, §2

Row | SMILES | MIC, A. oxydans 9333 [1] [µg/mL] | MIC, B. subtilis 3562 [2] [µg/mL] | MIC, E. coli 8785 [3] [µg/mL] | MIC, P. aeruginosa 3700 [4] [µg/mL] | MIC, C. albicans 74 [5] [µg/mL]
1 | CC[C@H](C)[C@H](NC(=O)CNC(=O)[C@H](CO)NC(=O)[C@H](CC(C)C)NC(=O)[C@@H](NC(=O)[C@H](CCN)NC(=O)CNC(=O)[C@@H](NC(=O)[C@H](CC(C)C)NC(=O)[C@@H]1CCCN1C(=O)[C@H](CC(C)C)NC(=O)[C@@H](N)Cc1ccccc1)[C@@H](C)CC)C(C)C)C(=O)N[C@@H](CC(C)C)C(N)=O [DTDab, FLPLIG-Dab-VLSGIL-NH2] (H-FLPLIG[Dab]VLSGIL-NH2; N-terminus assumed) | 320 (≈ 239 µM) | 160 (≈ 119 µM) | 320 (≈ 239 µM) | 320 (≈ 239 µM) | –
2 | CC[C@H](C)[C@H](NC(=O)CNC(=O)[C@H](CO)NC(=O)[C@H](CC(C)C)NC(=O)[C@@H](NC(=O)[C@H](CCCCN)NC(=O)CNC(=O)[C@@H](NC(=O)[C@H](CC(C)C)NC(=O)[C@@H]1CCCN1C(=O)[C@H](CC(C)C)NC(=O)[C@@H](N)Cc1ccccc1)[C@@H](C)CC)C(C)C)C(=O)N[C@@H](CC(C)C)C(N)=O [DTF, FLPLIG-K-VLSGIL-NH2, reference compound] (H-FLPLIGKVLSGIL-NH2) | 80 (≈ 58.4 µM) | 80 (≈ 58.4 µM) | 320 (≈ 234 µM) | 160 (≈ 117 µM) | 320 (≈ 234 µM)
